From PMC4360945, “In silico discovery and validation of potent small-molecule inhibitors targeting the activation function 2 site of human oestrogen receptor α” (Breast Cancer Research : BCR, 2015) come the findings set out here.

Assay [1] deals with pS2, cathepsin D and CDC2 protein. As to the kind of experiment: Western blotting of oestrogen-responsive gene products in MCF7 cells. It counts as cell-based, human. Conditions: MCF7, 24 h, 1 nM E2; 12 and 6 μM. The protocol: MCF7 cells were serum-starved in phenol red–free RPMI 1640 containing 10% CSS for 5 days. […] After 24 hours, the medium was aspirated, and the cells were washed with ice-cold phosphate-buffered saline. Cells were lysed in 1× radioimmunoprecipitation assay buffer containing one tablet of cOmplete protease inhibitor cocktail (Roche Life Science, Indianapolis, IN, USA). Cell debris was pelleted by centrifugation at 15,000 g for 10 minutes at 4°C. The supernatants were collected and quantified using the BCA assay. In each case, 25 μg of protein was loaded onto 15% (v/v) SDS-PAGE gels, separated and transferred to polyvinylidene fluoride membrane. Membranes were incubated with pS2, cathepsin D and CDC2 antibodies or control α-actin antibody. Bound antibodies were detected using horseradish peroxidase–conjugated secondary antibodies. Chemiluminescence was detected with an Amersham ECL detection kit (GE Healthcare Life Sciences), and bands were visualised using the G:BOX imager (Syngene, Frederick, MD, USA).
In general terms: A western blot detects proteins with antibodies after separation by electrophoresis.

Assay [2] deals with T1, oestrogen receptor-alpha (ERα) (Homo sapiens, UniProt P03372).
T1 sequence (P03372 1-595): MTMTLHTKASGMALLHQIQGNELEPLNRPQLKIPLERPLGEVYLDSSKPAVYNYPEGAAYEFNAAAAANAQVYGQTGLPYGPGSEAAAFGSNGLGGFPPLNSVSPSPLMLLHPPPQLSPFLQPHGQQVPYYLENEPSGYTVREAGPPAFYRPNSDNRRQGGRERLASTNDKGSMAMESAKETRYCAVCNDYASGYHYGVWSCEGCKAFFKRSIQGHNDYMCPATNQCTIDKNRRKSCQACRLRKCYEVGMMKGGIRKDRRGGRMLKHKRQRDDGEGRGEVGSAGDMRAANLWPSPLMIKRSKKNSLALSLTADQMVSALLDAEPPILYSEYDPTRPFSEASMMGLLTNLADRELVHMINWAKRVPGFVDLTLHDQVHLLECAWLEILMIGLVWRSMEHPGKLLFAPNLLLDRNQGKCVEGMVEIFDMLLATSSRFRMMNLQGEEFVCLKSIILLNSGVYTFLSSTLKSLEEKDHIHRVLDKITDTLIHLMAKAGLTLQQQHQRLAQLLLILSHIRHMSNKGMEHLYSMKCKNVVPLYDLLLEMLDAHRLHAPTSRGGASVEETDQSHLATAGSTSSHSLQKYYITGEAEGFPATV
As to the kind of experiment: Luciferase oestrogen receptor-alpha transcriptional assay in T47D-KBluc cells. It counts as cell-based. Also noted: endogenous in cells; host or cells: T47D-KBluc. The protocol:
ERα-positive T47D-KBluc human BCa cells were grown in phenol red–free RPMI 1640 supplemented with 10% CSS for 5 days. The cells were seeded on a 96-well plate (2 × 10^4 cells/well). […] The test compounds were screened at two concentrations: 12 μM and 30 μM. […] The medium contained 0.1% (v/v) ethanol and 0.1% (v/v) DMSO. Twenty-four hours after treatment, the medium was aspirated and the cells were lysed by adding 50 μl of 1× passive lysis buffer (Promega, Madison, WI, USA). The plates were placed on a shaker at room temperature for 15 minutes and then subjected to two freeze–thaw cycles to help lyse the cells. Next, 20 μl of the lysate from each treatment was transferred onto a white, 96-well, flat-bottomed plate (Corning Life Sciences, Corning, NY, USA), and the luminescent signal was measured after adding 50 μl of the luciferase assay reagent (Promega) on a TECAN M200 PRO microplate reader (Tecan, Männedorf, Switzerland). Differences in growth were normalised against total protein concentration, which was measured by bicinchoninic acid (BCA) assay.

Assay [3] concerns the target T1, oestrogen receptor-alpha (ERα). The experiment in a line: Transiently transfected E2-responsive luciferase reporter in TamR3 cells. It counts as cell-based. On the set-up: endogenous in cells. Conditions: TamR3, 1 nM E2; read-out: IC50, transcriptional inhibition of transiently transfected E2-responsive luciferase reporter. The procedure:
(§1) For transient transfection, we used pGL2.TATA.Inr.luc plasmid, which contains three copies of vitellogenin oestrogen response element (ERE) upstream of the TATA promoter (3X ERE TATA luc; Addgene plasmid 11354). This is the same plasmid used to construct pGL2.TATA.Inr.luc.neo, used to create the stable cell line T47D-KBluc.
(§2) TamR3 and TamR6 cells were grown in phenol red–free RPMI 1640 supplemented with 10% CSS and 1 μM tamoxifen. The cells were seeded on a 96-well plate (2 × 10^4 cells/well). After 24 hours, the cells were cotransfected with 50 ng each of the ERα-responsive luciferase plasmid and a constitutive Renilla reporter (to normalise for variations in transfection efficiency) using TransIT-2020 reagent (Mirus Bio, Madison, WI, USA). […] The compounds were added in a twofold dilution ranging from 0.1 to 50 μM. […] The medium contained 0.1% (v/v) ethanol and 0.1% (v/v) DMSO. Twenty-four hours after treatment, the medium was aspirated and the cells were lysed by adding 50 μl of 1× passive lysis buffer (Promega). Luciferase activities were assayed using the Dual-Luciferase Reporter Assay System (Promega).
Background: A reporter such as luciferase makes a cellular process visible.

Assay [4] concerns the target T2, ERα LBD (Homo sapiens, UniProt P03372).
T2 construct: ERα LBD (peptides 302 to 552); made in house; host or cells: Escherichia coli BL21
T2 sequence (P03372 302-552): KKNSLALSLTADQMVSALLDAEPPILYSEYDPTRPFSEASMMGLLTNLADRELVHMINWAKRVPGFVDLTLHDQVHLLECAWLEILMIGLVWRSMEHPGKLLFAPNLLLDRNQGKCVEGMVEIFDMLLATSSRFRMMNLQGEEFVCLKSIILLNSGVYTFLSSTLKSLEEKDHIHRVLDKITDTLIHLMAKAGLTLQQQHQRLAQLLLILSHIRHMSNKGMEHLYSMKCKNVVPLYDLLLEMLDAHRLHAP
As to the kind of experiment: Bio-layer interferometry assay. It counts as binding. Conditions: 3 to 100 μM. The text has this: The direct reversible interaction between small molecules and the ER-α was quantified by BLI using an Octet RED apparatus (Pall ForteBio, Menlo Park, CA, USA). The LDB of the biotinylated oestrogen receptor-alpha (bERα) was produced in situ with AviTag technology (Avidity, Aurora, CO, USA). […] A six-residue histidine tag was incorporated at the C-terminus of the ERα LBD for purification of the protein. […] The bacteria were then lysed by sonication, and the resulting lysate was purified by immobilised metal ion affinity chromatography with nickel agarose beads and cation exchange chromatography (HiTrap SP; GE Healthcare Life Sciences, Pittsburgh, PA, USA). […] The compounds were dissolved in the assay buffer in a twofold dilution series ranging from 3.1 to 100 μM.
The ERα LBD was biotinylated on the AviTag by a biotin ligase expressed by the bacterial cells cotransformed with the biotin ligase plasmid pBirACm. The bERα LBD was purified by nickel-affinity chromatography and immobilised on streptavidin-coated biosensor tips. The interaction between small molecule and protein was measured in real time as a shift in the interference pattern of the incident light. A response profile was generated on the Octet RED system.
In general terms: BLI is a label-free optical method that tracks binding on a fibre tip over time.

In assay [5] the target is T3, ERα AF2 site (GST-tagged ER-LBD) (Homo sapiens, UniProt P03372).
T3 construct: glutathione S-transferase (GST)-tagged ER-LBD (7.25 nM); purchased Life Technologies PV4544
T3 sequence (P03372 311-547 limits assumed): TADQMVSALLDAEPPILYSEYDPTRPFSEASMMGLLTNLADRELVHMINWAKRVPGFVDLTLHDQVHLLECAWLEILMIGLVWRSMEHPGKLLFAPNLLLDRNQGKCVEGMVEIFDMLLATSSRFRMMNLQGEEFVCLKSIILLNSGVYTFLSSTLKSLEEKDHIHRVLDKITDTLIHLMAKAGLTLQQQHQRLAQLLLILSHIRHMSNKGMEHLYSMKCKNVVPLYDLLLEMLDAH
The experiment in a line: TR-FRET ERα coactivator (PGC-1α peptide) displacement assay. It is filed as biochemical.
Method: Peptide displacement was assessed with the LanthaScreen TR-FRET ER Alpha Coactivator Assay kit (PV4544; Life Technologies) as per the instructions of the manufacturer. The compounds were tested in the range of 0.1 to 50 μM, and cold PGC-1α was added at threefold dilutions ranging from 1.8 to 50 μM.
Briefly, a twofold serial dilution of the test compounds was prepared at 100× final concentration in DMSO. The compounds were diluted 50-fold in complete assay buffer (assay buffer containing 5 mM dithiothreitol) to get a 2× final concentration and 2% DMSO. […] Ten microlitres of the diluted test compounds were added to a black, flat-bottomed, 384-well plate, followed by addition of 5 μl of the 4× ER-LBD mix.
Tb-labelled anti-GST antibody indirectly labels the ERα LBD by binding to a GST tag on the protein. […] The close proximity of fluorescein-PGC-1α to the terbium-labelled antibody causes an increase in the TR-FRET signal.

For assay [6], the system named is MCF7 cells. As to the kind of experiment: MTS assay, MCF7. To be noted: MCF7, 96 h, 1 nM E2; read-out: IC50, growth inhibition. It is filed as cell-based, human. The protocol:
(§3) Cells were seeded in 96-well plates at a density of 5 × 10^3 cells/well. MCF7, […]-MB-453 and HeLa cells were seeded in their respective media. […] After 96 hours, 30 μl of MTS reagent (CellTiter 96 AQueous One Solution Cell Proliferation Assay reagent; Promega) were added and incubated for 90 minutes at 37°C in 5% CO2. The production of formazan was measured at 490 nm.

The subject of assay [7] is TamR6 cells. As to the kind of experiment: MTS assay, TamR6. It is filed as cell-based, human. The protocol: as §3
The test system of assay [8] is TamR3 cells. As to the kind of experiment: MTS assay, TamR3. It counts as cell-based, human. The procedure:
as §3

Assay [9] has as its system pS2, cathepsin D and CDC2 mRNA. The experiment in a line: Quantitative RT-PCR of oestrogen-responsive genes in MCF7 cells. It counts as cell-based, human. To be noted: MCF7, 24 h. The protocol:
mRNA levels were analysed by quantitative RT-PCR (qRT-PCR). For this purpose, serum-starved MCF7 cells were seeded onto six-well plates at a density of 6 × 10^5 cells/well. […] RNA was isolated after 24 hours with TRIzol reagent (Life Technologies) and purified with the RNeasy Mini Kit (QIAGEN, Valencia, CA, USA). The purified mRNA was quantified using a NanoDrop spectrophotometer (NanoDrop, Wilmington, DE, USA). RNA (0.5 μg) was reverse-transcribed using the iScript synthesis kit (Bio-Rad Laboratories, Hercules, CA, USA). cDNA product (100 ng) was added to the primer mix. The final concentration of the primers was 5 pM. The sequences of the primers used in the qRT-PCR experiments were as follows: pS2, forward [NT] and reverse [NT]; cathepsin D, forward [NT] and reverse [NT]; CDC2, forward [NT] and reverse [NT]; glyceraldehyde 3-phosphate dehydrogenase (GAPDH), forward [NT] and reverse [NT]. The fold change in expression of the gene was calculated using the 2^-ΔΔCt method with GAPDH as the internal control.

For assay [10], the target named is T1, oestrogen receptor-alpha (ERα). As to the kind of experiment: Transiently transfected E2-responsive luciferase reporter in TamR6 cells. It counts as cell-based. Also noted: endogenous in cells. To be noted: TamR6, 1 nM E2; read-out: IC50, transcriptional inhibition of transiently transfected E2-responsive luciferase reporter. The procedure: as §1, §2
In assay [11] the target is T4, biotinylated oestrogen receptor-alpha ligand-binding domain (bERα LBD) (human, UniProt P03372 302-552, biotin on the AviTag).
T4 construct: Assay buffer held 0.02 mM E2
T4 sequence (looked up): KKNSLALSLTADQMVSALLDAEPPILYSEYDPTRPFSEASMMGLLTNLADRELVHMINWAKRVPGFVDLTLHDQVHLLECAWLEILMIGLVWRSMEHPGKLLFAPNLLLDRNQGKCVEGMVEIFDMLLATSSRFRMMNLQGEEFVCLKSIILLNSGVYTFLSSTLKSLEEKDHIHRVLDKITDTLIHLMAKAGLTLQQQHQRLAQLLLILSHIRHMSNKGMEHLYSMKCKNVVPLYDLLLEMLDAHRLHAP
As to the kind of experiment: BLI; Octet RED; bERα LBD bound to Super Streptavidin Sensors; 20 mM Tris pH 7.5, 500 mM NaCl, 0.2 mM TCEP, 0.02 mM E2, 5% glycerol, 5% DMSO; PGC-1α peptide in solution as positive control. To be noted: both partners purified.

“And” between values parts separate entries of the source, which are not always exact repeats. Equal values may be shown once. “Also recorded” adds a separate entry of the source.

As a reminder, the IC50 is the concentration that gives 50% inhibition. With `CCOc1cc(Br)cc(/C=N/NC(=O)c2ccc3c(c2)OCCO3)c1O` [VPC-16230], in assay [1], the “Protein levels of pS2, cathepsin D and CDC2” value is given as “decreased”. The IC50 was 5.81 µM and 5.8 µM in assay [2] (T47D-KBluc cells, 1 nM E2, 24 h, read-out: IC50, inhibition of ERα transcriptional activity (luciferase reporter)); 6.1 µM in [2] (read-out: IC50, luciferase assay at varied E2, T47D-KBluc, E2 1 nM); 6.5 µM in assay [2] (read-out: IC50, luciferase assay at varied E2, T47D-KBluc, E2 100 nM); 4.7 µM in [3]; 2.98 µM in [5] (TR-FRET, read-out: IC50, displacement of PGC-1α peptide from the AF2 site); 7.8 µM in assay [6]. For the same molecule, the half-maximal inhibitory concentration (IC50) in assay [7] (TamR6, 96 h, 1 nM E2, read-out: IC50, growth inhibition) is 6.3 µM; in assay [8] (TamR3, 96 h, 1 nM E2, read-out: IC50, growth inhibition), 3.4 µM; in assay [10] it was 4.7 µM. In assay [2] (T47D-KBluc, E2 1, 10, 50, 100 nM), the “Shift of the IC50 curve in the presence of higher concentrations of E2” value was “did not show any significant shift”. The “Binding to ERα LBD by BLI” value in assay [4] is “direct and reversible interaction”. Further, in assay [5] (fluorescein-PGC-1α 250, 500, 1000 nM, compounds 0.05 to 400 μM), the “Shift of dose-response curve with increasing fluorescein-PGC-1α” value is “rightward shift”. Further, the “mRNA levels of pS2, cathepsin D and CDC2” value is “did not significantly inhibit; also recorded: did not significantly decrease” in assay [9] (in the absence of E2, 12, 6 and 3 μM); “considerably reduced; also recorded: significantly decreased” in assay [9] (in the presence of 1 nM E2, 12 and 6 μM).
For `CC/C(=C(\c1ccccc1)c1ccc(OCCN(C)C)cc1)c1ccccc1` [tamoxifen, reference compound], the “Growth in the presence of 1 μM tamoxifen” value in assay [7] (TamR6, 1 μM in the medium) is given as “not affected”; in assay [8] (TamR3, 1 μM in the medium), “not affected”.
In the case of “cold PGC-1α peptide: Cold PGC-1α coactivator peptide (EAEEPSLLKKLLLAPANTQ), known AF2-interacting control [reference compound]”, in assay [4], the “Binding to ERα LBD by BLI” value was “direct and reversible interaction”. In assay [5] (1.8 to 50 μM), the “FRET signal with increasing concentration of cold peptide” value is on record as “dose-dependent decrease”.

B1: Cold peroxisome proliferator-activated receptor gamma, coactivator 1-alpha (PGC-1α) peptide (peptide)
peptide: EAEEPSLLKKLLLAPANTQ
notes: also called cold PGC-1α peptide; cold PGC-1α; source: synthetic peptide (Elim Biopharmaceuticals)
For B1, the binding result in assay [11] was “binds”.
